In US3960877A, “N-monosubstituted-2,3-pyridinedicarboxamides, and related compounds” (priority 1974, dated 1976):

Columns and labels:
Type in all cases: in vivo
[1] = system: undesirable plants of both the monocotyledonous and the dicotyledonous species; test: Herbicidal activity, general; details: for herbicidal activity: 16 pounds per acre
Excerpt: All of the 3-substituted compounds of the pyrido [3,2-d]pyrimidine-2,4(1H,3H)-dione and lumazine families made from intermediate amides produced by the method of this invention have an unexpectedly high order of herbicidal activity.
In using the compound, seeds of the types of plants set forth in Table II were sown in fresh soil. In the preemergence test the soil was sprayed with a solution of the test compound immediately after the seeds were planted, and before any noticeable growth developed. The solution was about a 2 percent by weight solution of the compound in acetone and/or alcohol. The compound was applied at the rate of 16 pounds per acre of soil surface.
Approximately 3 weeks after spray application, the herbicidal activity of the compound was determined by visual observation of the treated area in comparison with untreated control areas. These observations are reported below in Table II wherein the average activity rating is reported as the percent control of plant growth.
In the postemergence test the soil and developing plants were sprayed approximately 2 weeks after the seeds were sown. The compound was applied at the rate of 8 pounds per acre from about a 2 percent by weight solution of the test compound in acetone and/or alcohol. The postemergence herbicidal activity was measured in the same way as the preemergence activity; i.e. visual observation approximately 11 days after spraying, and expressed as the percent control of plant growth.

Barnyard Grass [2] = test: Preemergence herbicidal activity, % control of plant growth; details: Echinochloa crus-galli, pre-emergence, 504 h; barnyard grass; 16 lb/acre; about 3 weeks
Summary of the method: (§1)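 Visual % control score, averaged, taken ~3 weeks post-spray against untreated areas. Test compound (~2 wt% in acetone/alcohol) was sprayed at 16 lb/acre on soil right after sowing, pre-emergence.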

Snapbeans [3] = test: as above; details: pre-emergence, 504 h, 16 lb/acre, about 3 weeks
Summary of the method: as §1

Curled Dock [4] = test: as above; details: pre-emergence, 504 h, 16 lb/acre, about 3 weeks
Summary of the method: as §1

Wild Oats [5] = test: as above; details: Avena fatua, pre-emergence, 504 h, 16 lb/acre, about 3 weeks
Summary of the method: as §1

Lambsquarters [6] = test: as above; details: Chenopodium album, pre-emergence, 504 h, 16 lb/acre, about 3 weeks
Summary of the method: as §1

Alfalfa [7] = test: as above; details: Medicago sativa, pre-emergence, 504 h, 16 lb/acre, about 3 weeks
Summary of the method: as §1

Pigweed [8] = test: as above; details: Amaranthus retroflexus, pre-emergence, 504 h, 16 lb/acre, about 3 weeks
Summary of the method: as §1

Chickweed [9] = test: as above; details: pre-emergence, 504 h, 16 lb/acre, about 3 weeks
Summary of the method: as §1

Cucumber [10] = test: as above; details: Cucumis sativus, pre-emergence, 504 h, 16 lb/acre, about 3 weeks
Summary of the method: as §1

Nutgrass [11] = test: as above; details: pre-emergence, 504 h, 16 lb/acre, about 3 weeks
Summary of the method: as §1

Johnsongrass [12] = test: as above; details: Sorghum halepense, pre-emergence, 504 h, 16 lb/acre, about 3 weeks
Summary of the method: as §1

Velvetleaf [13] = test: as above; details: Abutilon theophrasti, pre-emergence, 504 h, 16 lb/acre, about 3 weeks
Summary of the method: as §1

Yellow Rocket [14] = test: as above; details: pre-emergence, 504 h, 16 lb/acre, about 3 weeks
Summary of the method: as §1

Foxtail [15] = test: as above; details: Setaria, pre-emergence, 504 h, 16 lb/acre, about 3 weeks
Summary of the method: as §1

Crabgrass [16] = test: as above; details: Digitaria sanguinalis, pre-emergence, 504 h, 16 lb/acre, about 3 weeks
Summary of the method: as §1

Cheatgrass [17] = test: as above; details: Bromus tectorum, pre-emergence, 504 h, 16 lb/acre, about 3 weeks
Summary of the method: as §1

Corn [18] = test: as above; details: Zea mays, pre-emergence, 504 h, 16 lb/acre, about 3 weeks
Summary of the method: as §1

Barnyard Grass [19] = test: Postemergence herbicidal activity, % control of plant growth; details: Echinochloa crus-galli, post-emergence, 264 h, 8 lb/acre, about 11 days
Summary of the method: (§2)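 Percent growth control was judged by eye about 11 days after spraying. Plants had been treated postemergence, roughly 2 weeks after seeding, at 8 lb/acre using an approximately 2 percent by weight solution in acetone and/or alcohol.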

Snapbeans [20] = test: as above; details: post-emergence, 264 h, 8 lb/acre, about 11 days
Summary of the method: as §2

Curled Dock [21] = test: as above; details: post-emergence, 264 h, 8 lb/acre, about 11 days
Summary of the method: as §2

Wild Oats [22] = test: as above; details: Avena fatua, post-emergence, 264 h, 8 lb/acre, about 11 days
Summary of the method: as §2

Lambsquarters [23] = test: as above; details: Chenopodium album, post-emergence, 264 h, 8 lb/acre, about 11 days
Summary of the method: as §2

Alfalfa [24] = test: as above; details: Medicago sativa, post-emergence, 264 h, 8 lb/acre, about 11 days
Summary of the method: as §2

Pigweed [25] = test: as above; details: Amaranthus retroflexus, post-emergence, 264 h, 8 lb/acre, about 11 days
Summary of the method: as §2

Chickweed [26] = test: as above; details: post-emergence, 264 h, 8 lb/acre, about 11 days
Summary of the method: as §2

Cucumber [27] = test: as above; details: Cucumis sativus, post-emergence, 264 h, 8 lb/acre, about 11 days
Summary of the method: as §2

Nutgrass [28] = test: as above; details: post-emergence, 264 h, 8 lb/acre, about 11 days
Summary of the method: as §2

Johnsongrass [29] = test: as above; details: Sorghum halepense, post-emergence, 264 h, 8 lb/acre, about 11 days
Summary of the method: as §2

Velvetleaf [30] = test: as above; details: Abutilon theophrasti, post-emergence, 264 h, 8 lb/acre, about 11 days
Summary of the method: as §2

Yellow Rocket [31] = test: as above; details: post-emergence, 264 h, 8 lb/acre, about 11 days
Summary of the method: as §2

Foxtail [32] = test: as above; details: Setaria, post-emergence, 264 h, 8 lb/acre, about 11 days
Summary of the method: as §2

Crabgrass [33] = test: as above; details: Digitaria sanguinalis, post-emergence, 264 h, 8 lb/acre, about 11 days
Summary of the method: as §2

Cheatgrass [34] = test: as above; details: Bromus tectorum, post-emergence, 264 h, 8 lb/acre, about 11 days
Summary of the method: as §2

Corn [35] = test: as above; details: Zea mays, post-emergence, 264 h, 8 lb/acre, about 11 days
Summary of the method: as §2

SMILES | herbicidal activity [1] | pest or weed control at 17933.6 g/ha (Barnyard Grass [2]) | pest or weed control at 17933.6 g/ha (Snapbeans [3]) | pest or weed control at 17933.6 g/ha (Curled Dock [4]) | pest or weed control at 17933.6 g/ha (Wild Oats [5]) | pest or weed control at 17933.6 g/ha (Lambsquarters [6]) | pest or weed control at 17933.6 g/ha (Alfalfa [7]) | pest or weed control at 17933.6 g/ha (Pigweed [8]) | pest or weed control at 17933.6 g/ha (Chickweed [9]) | pest or weed control at 17933.6 g/ha (Cucumber [10]) | pest or weed control at 17933.6 g/ha (Nutgrass [11]) | pest or weed control at 17933.6 g/ha (Johnsongrass [12]) | pest or weed control at 17933.6 g/ha (Velvetleaf [13]) | pest or weed control at 17933.6 g/ha (Yellow Rocket [14]) | pest or weed control at 17933.6 g/ha (Foxtail [15]) | pest or weed control at 17933.6 g/ha (Crabgrass [16]) | pest or weed control at 17933.6 g/ha (Cheatgrass [17]) | plant injury at 17933.6 g/ha (Corn [18]) | pest or weed control at 8966.8 g/ha (Barnyard Grass [19]) | pest or weed control at 8966.8 g/ha (Snapbeans [20]) | also measured
O=c1[nH]c2ncccc2c(=O)n1C1CCCCC1 [3-cyclohexyl-pyrido[2,3-d]pyrimidine-2,4-(1H,3H)-dione] | no appreciable herbicidal activity | – | – | – | – | – | – | – | – | – | – | – | – | – | – | – | – | – | – | – | –
CC(C)n1c(=O)[nH]c2ncccc2c1=O [3-isopropyl-pyrido[2,3-d]pyrimidine-2,4(1H,3H)-dione] | no appreciable herbicidal activity | – | – | – | – | – | – | – | – | – | – | – | – | – | – | – | – | – | – | – | order of herbicidal activity ([1]; in vivo): no appreciable activity
CC(C)n1c(=O)[nH]c2cnccc2c1=O [3-isopropyl-pyrido[3,4-d]pyrimidine-2,4(1H,3H)-dione] | no appreciable herbicidal activity | – | – | – | – | – | – | – | – | – | – | – | – | – | – | – | – | – | – | – | –
CC(C)n1c(=O)[nH]c2ccncc2c1=O [3-isopropyl-pyrido[4,3-d]pyrimidine-2,4(1H,3H)-dione] | no appreciable herbicidal activity | – | – | – | – | – | – | – | – | – | – | – | – | – | – | – | – | – | – | – | –
O=c1[nH]c2ncccc2c(=O)n1-c1ccccc1 [3-phenyl-pyrido[2,3-d]pyrimidine-2,4(1H,3H)-dione] | no appreciable herbicidal activity | – | – | – | – | – | – | – | – | – | – | – | – | – | – | – | – | – | – | – | –
O=c1[nH]c2nccnc2c(=O)n1C1CCCCC1 [Lumazine, 3-cyclohexyl] | – | 20% | 100% | 90% | 20% | 100% | 100% | 100% | 100% | 100% | 100% | 30% | 100% | 100% | 20% | 80% | 10% | 40% | 10% | 100% | pest or weed control at 8966.8 g/ha (Curled Dock [21]): 100%; pest or weed control at 8966.8 g/ha (Wild Oats [22]): 10%; pest or weed control at 8966.8 g/ha (Lambsquarters [23]): 100%; pest or weed control at 8966.8 g/ha (Alfalfa [24]): 100%; pest or weed control at 8966.8 g/ha (Pigweed [25]): 90%; pest or weed control at 8966.8 g/ha (Chickweed [26]): 90%; pest or weed control at 8966.8 g/ha (Cucumber [27]): 100%; pest or weed control at 8966.8 g/ha (Nutgrass [28]): 100%; pest or weed control at 8966.8 g/ha (Johnsongrass [29]): 20%; pest or weed control at 8966.8 g/ha (Velvetleaf [30]): 100%; pest or weed control at 8966.8 g/ha (Yellow Rocket [31]): 100%; pest or weed control at 8966.8 g/ha (Foxtail [32]): 10%; pest or weed control at 8966.8 g/ha (Crabgrass [33]): 20%; pest or weed control at 8966.8 g/ha (Cheatgrass [34]): 50%; plant injury at 8966.8 g/ha (Corn [35]): 10%
CCC(C)n1c(=O)[nH]c2nccnc2c1=O (stereo not drawn) [Lumazine, 3-sec-butyl] | – | 40% | 90% | 70% | 30% | 100% | 100% | 100% | 40% | 10% | 40% | 40% | 100% | 100% | 30% | 100% | 90% | 10% | 0% | 20% | pest or weed control at 8966.8 g/ha (Curled Dock [21]): 50%; pest or weed control at 8966.8 g/ha (Wild Oats [22]): 0%; pest or weed control at 8966.8 g/ha (Lambsquarters [23]): 100%; pest or weed control at 8966.8 g/ha (Alfalfa [24]): 50%; pest or weed control at 8966.8 g/ha (Pigweed [25]): 20%; pest or weed control at 8966.8 g/ha (Chickweed [26]): 0%; pest or weed control at 8966.8 g/ha (Cucumber [27]): 60%; pest or weed control at 8966.8 g/ha (Nutgrass [28]): 0%; pest or weed control at 8966.8 g/ha (Johnsongrass [29]): 0%; pest or weed control at 8966.8 g/ha (Velvetleaf [30]): 90%; pest or weed control at 8966.8 g/ha (Yellow Rocket [31]): 100%; pest or weed control at 8966.8 g/ha (Foxtail [32]): 0%; pest or weed control at 8966.8 g/ha (Crabgrass [33]): 0%; pest or weed control at 8966.8 g/ha (Cheatgrass [34]): 0%; plant injury at 8966.8 g/ha (Corn [35]): 0%
O=c1[nH]c(=O)c2ncccc2[nH]1 [pyrido[3,2-d]pyrimidine-2,4(1H,3H)-dione, reference compound] | – | 0% | 0% | 0% | 0% | 0% | 0% | 0% | 0% | 0% | 0% | 0% | 0% | 0% | 0% | 0% | 0% | 0% | 0% | 0% | pest or weed control at 8966.8 g/ha (Curled Dock [21]): 0%; pest or weed control at 8966.8 g/ha (Wild Oats [22]): 0%; pest or weed control at 8966.8 g/ha (Lambsquarters [23]): 0%; pest or weed control at 8966.8 g/ha (Alfalfa [24]): 0%; pest or weed control at 8966.8 g/ha (Pigweed [25]): 0%; pest or weed control at 8966.8 g/ha (Chickweed [26]): 0%; pest or weed control at 8966.8 g/ha (Cucumber [27]): 0%; pest or weed control at 8966.8 g/ha (Nutgrass [28]): 0%; pest or weed control at 8966.8 g/ha (Johnsongrass [29]): 0%; pest or weed control at 8966.8 g/ha (Velvetleaf [30]): 0%; pest or weed control at 8966.8 g/ha (Yellow Rocket [31]): 0%; pest or weed control at 8966.8 g/ha (Foxtail [32]): 0%; pest or weed control at 8966.8 g/ha (Crabgrass [33]): 0%; pest or weed control at 8966.8 g/ha (Cheatgrass [34]): 0%; plant injury at 8966.8 g/ha (Corn [35]): 0%
